# Laboratory results as given in patent US20120283212A1, “USE OF POLYSACCHARIDES FOR TREATING STRESS AND ANXIETY” (ROQUETTE FRERES, priority 2009, published 2012).
# What was measured:
# male Wistar rat [1] = assay: Functional observational battery (FOB); assay type: in vivo; conditions: diazepam 3 mg/kg on D14; for Spontaneous activity on D14 (score): score 0=excited, 1 to 3 moderate rapid movements, 4 no activity; for Finger approach reaction on D14 (score): score 0=none, 1 to 3=slight to strong escape; for Respiratory rate on D14 (score): score 0=slow, 1=normal, 2 rapid
# Experimental: The effects of an oligosaccharide administered orally at doses of 0.7 and 1.4 g/kg for 14 days were evaluated in a functional observational battery (FOB) in the male Wistar rat. The objective of this FOB test is to evaluate the change in behavioral, neurological and physiological parameters of the rats according to the products tested.
# For this, a polysaccharide (PS1) as defined in table 1 is administered by esophageal gavage daily at these two doses for 14 days (6 rats per group). Similarly, a vehicle control consisting of spring water is administered under these conditions. The reference positive control is diazepam: from D0 to D13, methylcellulose is administered to the rats and on D14, diazepam at 3 mg/kg of body weight is also administered.
# The animals are subjected to the functional observational battery before treatment on D0 and at the end of the study on D14.
# Each test comprises three observational phases: • a direct observational phase during which the animal is not disturbed, • an active observational phase during which the animal is handled, • a phase devoted to evaluating the reactions of the animals to reactivity tests.
# Several variables are recorded: • Behavioral effects: spontaneous locomotor activity, locomotor behavior disorders, emotionality (vocalization frequency), touch escape reaction, irritability, provoked aggressiveness and freezing behaviors, sleeping/awakening, urination and defecation, sensorimotor responses (visual placing, toe pinch and sound stimulus reaction). • Neurological effects: pupillary response, palpebral reflex, pelvic elevation, tail position, limb and abdominal muscle tone, righting test, grip strength test, suspension test, tremors and piloerection. • Physiological effects: salivation, lacrimation, diarrhea, rectal temperature, heart and respiratory rate.
# Definition of the scores: • Spontaneous activity: 0=excited; 1 to 3 moderate rapid movements; 4: no activity. • Finger approach reaction: 0=none; 1 to 3=slight to strong escape. • Respiratory rate: 0=slow; 1=normal; 2 rapid. • Sound stimulus startle reaction: 0=slight; 1=<1 cm; 2=>1 cm.
# male Wistar rat [2] = assay: Conditioned Defensive Burying (CDB) test; assay type: in vivo; conditions: the greater the stress, the higher the score
# Experimental: The anti-stress effects of a PS1 polysaccharide, administered orally for 14 days, were evaluated in the male Wistar rat in the Conditioned Defensive Burying (CDB) test.
# For this, the PS1 is administered by esophageal gavage daily at the doses of 0.7, 1.4 and 2.8 g/kg of body weight for 14 days (8 rats per group). Similarly, a vehicle control represented by spring water is administered under the same conditions. The reference positive control is diazepam: from D0 to D13, methylcellulose is administered to the rats, and on D14, diazepam at 1 mg/kg or 3 mg/kg of body weight is administered to the rats. The PS1 and diazepam mixture is also studied: the PS1 is administered for 14 days alone, and on D14, diazepam at 1 mg/kg is added to the esophageal gavage of the PS1.
# On D14, the rats are subjected to the Conditioned Defensive Burying (CDB) test. For this, an electric probe is inserted into a cage before the start of the test. Each rat is placed in the experimental device on the opposite side to the probe and a single electric shock, of weak intensity (2 mA), is delivered to the animal at the moment it places its front paw on the probe for the first time. Following the shock, the behavior of the rat is recorded for five minutes; an overall stress score is attributed for each rat. The greater the stress, the higher the score.
compound,measurement,setting,value
"CN1C(=O)CN=C(c2ccccc2)c2cc(Cl)ccc21 [Diazepam, diazepam]","Heart rate on D14, in comparison with the vehicle",male Wistar rat [1],significantly slower
same,Spontaneous activity on D14 (score),male Wistar rat [1],2.16
same,Spontaneous activity on D14 (score),male Wistar rat [1]; listed as reference,tend to be significantly less active
same,Finger approach reaction on D14 (score),male Wistar rat [1],0.18
same,Finger approach reaction on D14 (score),male Wistar rat [1]; listed as reference,significantly less reactive to a finger approach
same,Sound stimulus startle reaction on D14 (score),"male Wistar rat [1]; score 0=slight, 1=<1 cm, 2=>1 cm",0.00
same,Respiratory rate on D14 (score),male Wistar rat [1],1.14
same,Respiratory rate on D14 (score),male Wistar rat [1]; listed as reference,significantly slower
same,Overall stress score (Mean ± SEM),male Wistar rat [2]; diazepam 1 mg/kg on D14,92.57 ± 17.99
same,Overall stress score (Mean ± SEM),male Wistar rat [2]; diazepam 3 mg/kg on D14,65.25 ± 7.15
same,Overall stress score (Mean ± SEM),"male Wistar rat [2]; diazepam 3 mg/kg on D14, listed as diazepam",significantly lower than that of the vehicle group
